Data set [1] in a line: pH measurement of solutions (pH meter). Format: physicochemical. How it is done:
A solution containing disodium EDTA that was pH adjusted using base was prepare by the following method: • 1. Weigh out 300 mg disodium EDTA powder in 30 ml vial, and dissolve in 9.3 mL sterile water. Shake EDTA and sterile water until completely dissolved. QS to 10 ml with water. […] Measure pH, Add 1M NaOH recording volume added and remeasure pH.
A solution containing tetrasodium EDTA pH adjusted with disodium EDTA was prepared by the following method: • 1. Weigh out 300 mg disodium EDTA powder in 30 ml vial, and dissolve in 9.3 mL sterile water. Shake EDTA and sterile water until completely dissolved. QS to 10 ml with water. […] Weigh out 300 mg tetrasodium EDTA powder in 30 ml vial, and dissolve in 9.3 mL sterile water. Shake EDTA and sterile water until completely dissolved. QS to 10 ml with water. […] Measure pH of tetrasodium EDTA and add disodium EDTA recording volume added and pH after each addition • The following solutions were produced:
7. Prepare 19 syringes with 1 mL in each syringe. (1-3 mL sterile syringe can be used) Label the syringes and protect from light. • The pH from seven syringes, sampled randomly, were measured using a pH meter.

For data set [2] the following is noted: cited from earlier work; for fraction of EDTA that is tetravalent: 0.1 Molar (Harris 2010).

Where two headings read alike, the source gives them in different places.

On to `O=C([O-])CN(CCN(CC(=O)O)CC(=O)O)CC(=O)[O-].[Na+].[Na+]` [3% disodium EDTA, Ethylenediamine-N,N,N′,N′,-tetraacetic acid, disodium salt], for which the pH in data set [1] (10 ml 3% disodium EDTA, total volume 1M NaOH added 0) was determined as 4.5; in data set [1] (10 ml 3% disodium EDTA, total volume 1M NaOH added 0.5 ml), 4.9; in data set [1] (10 ml 3% disodium EDTA, total volume 1M NaOH added 1.0 ml), 5.4; in data set [1] (10 ml 3% disodium EDTA, total volume 1M NaOH added 1.5 ml), 6.9; in data set [1] (10 ml 3% disodium EDTA, total volume 1M NaOH added 1.7 ml) it was 7.4.
For the molecule `O=C([O-])CN(CCN(CC(=O)[O-])CC(=O)[O-])CC(=O)[O-].[Na+].[Na+].[Na+].[Na+]` [3% tetrasodium EDTA, Ethylenediamine-N,N,N′,N′-tetraacetic acid, tetrasodium salt], the pH in data set [1] (5 ml 3% tetrasodium EDTA, total volume 3% disodium EDTA added 0) came to 10.9; in data set [1] (5 ml 3% tetrasodium EDTA, total volume 3% disodium EDTA added 1 ml), 10.2; in data set [1] (5 ml 3% tetrasodium EDTA, total volume 3% disodium EDTA added 2 ml), 9.5; in data set [1] (5 ml 3% tetrasodium EDTA, total volume 3% disodium EDTA added 3 ml), 9.0; in data set [1] (5 ml 3% tetrasodium EDTA, total volume 3% disodium EDTA added 4 ml), 8.8; in data set [1] (5 ml 3% tetrasodium EDTA, total volume 3% disodium EDTA added 5 ml), 8.1. Further, in data set [1] (5 ml 3% tetrasodium EDTA, total volume 3% disodium EDTA added 6 ml), the pH worked out at 7.1.
Consider `O=C([O-])CN(CCN(CC(=O)[O-])CC(=O)O)CC(=O)[O-].[Na+].[Na+].[Na+]` [Trisodium EDTA, Ethylenediamine-N,N,N′,N′,-tetraacetic acid, trisodium salt], for which the pH in data set [2] (vendor product (Dissolvine NA3-36)) is recorded as 9.5.
For `O=C(O)CN(CCN(CC(=O)O)CC(=O)O)CC(=O)O` [pure tetra-acid EDTA, Ethylenediamine-N,N,N′,N′,-tetraacetic acid], in data set [1] (in water/ethanol, Example 1), the pH was found to be 3.1. In addition, the “fraction of EDTA that is tetravalent” value in data set [2] (pH 6, 20 degrees Celsius) is “about 0.000018”; in data set [2] (pH 8, 20 degrees Celsius) it was “about 0.0042”.

The values are drawn from patent publication US20170151373A1, “ANTIMICROBIAL SOLUTIONS WITH ENHANCED STABILITY” (Board of Regents, The University of Texas System, priority 2015, published 2017).
